The subject of this experiment is MTT (mouse pheochromocytoma). Kind of experiment: IC50 of cell viability (ATP content). Conditions: (24 or 48 h). In short, it runs like this: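 The IC50 was fitted with a four-parameter logistic equation to normalised CellTiter-Glo ATP luminescence from MTT mouse pheochromocytoma cells. These cells, in white 1536-well plates, had been treated for 24 or 48 hrs with library compounds at 8 final concentrations between 0.5 nM and 46 µM, and luminescence was read after 15 minutes. Positive-control wells served as 100% and DMSO wells as 0%.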

Counter-ions that a name gives are not always drawn.

Regarding `O=C(CO)[C@@H](O)[C@H](O)[C@@H](O)CO` [L-(-)-Sorbose], the “IC50 of cell viability” value is above 46 µM.

Regarding `N=C(N)NCCC[C@H](N)C(=O)O` [L-Arginine], the “IC50 of cell viability” value is above 46 µM. For `O=C1O[C@H]([C@@H](O)CO)C(O)=C1O` [L-Ascorbic acid], the “IC50 of cell viability” value was above 46 µM. To `CCOC(=O)[C@@H](N)CS` [L-CYSTEINE ETHYLESTER HYDROCHLORIDE] belongs above 46 µM; to `N[C@@H](CCC(=O)O)C(=O)O` [L-GLUTAMIC ACID], above 46 µM; to `Cl.N[C@@H](Cc1c[nH]cn1)C(=O)O` [L-Histidine hydrochloride], above 46 µM. On to `CNC(=N)NCCC[C@H](N)C(=O)O` [L-NMMA], for which the “IC50 of cell viability” value is above 46 µM. In the case of `OCC1O[C@H](OC2C(CO)O[C@@](O)(CO)C2O)C(O)C(O)C1O` (stereo not given in full) [LACTULOSE], the “IC50 of cell viability” value was above 46 µM. The value for `O=C(CS(=O)Cc1ccco1)NC/C=C/COc1cc(CN2CCCCC2)ccn1` (stereo not given) [LAFUTIDINE] was above 46 µM; that for `CC(=O)O[C@H]1C[C@H](O[C@H]2[C@@H](O)CC(O[C@H]3[C@@H](O)C[C@H](O[C@H]4CC[C@@]5(C)[C@H](CC[C@@H]6[C@@H]5CC[C@]5(C)[C@@H](C7=CC(=O)OC7)CC[C@]65O)C4)O[C@@H]3C)O[C@@H]2C)O[C@H](C)[C@H]1O[C@@H]1O[C@H](CO)[C@@H](O)[C@H](O)[C@H]1O` (stereo not given in full) [LANATOSIDE A] was above 46 µM. The value for `CC1O[C@@H](CC(O)[C@H]1O[C@H]2CC(O)[C@@H](O[C@H]3CC(OC(C)=O)[C@H](O[C@H]4OC(CO)C(O)C(O)C4O)[C@@H](C)O3)C(C)O2)OC5CC[C@]6(C)C(CCC7C6CC(O)[C@@]8(C)C(CC[C@@]78O)\C9=C\C(=O)OC9)C5` (stereo not given in full) [LANATOSIDE C] was above 46 µM; that for `N#C/C(=C1/SCC(c2ccccc2Cl)S1)n1ccnc1` (stereo not given) [LANOCONAZOLE] was above 46 µM; that for `C[C@H](CN1CCCC1)C(=O)c1ccc(C(F)(F)F)cc1` [LANPERISONE HYDROCHLORIDE] was above 46 µM. To `C[S+](=O)([O-])CCNCc1ccc(-c2ccc3ncnc(Nc4ccc(OCc5cccc(F)c5)c(Cl)c4)c3c2)o1` [LAPATINIB TOSILATE HYDRATE] belongs above 46 µM. Consider `CCCCCCCCCCCC(=O)N(CCO)CCO` [LAURIC DIETHANOLAMIDE], for which the “IC50 of cell viability” value is above 46 µM. Consider `CCCCCCCCCCCCOCCCN` [LAURIXAMINUM], for which the “IC50 of cell viability” value was above 46 µM.

Take `NCCNC(=O)c1ccc(Cl)cn1` [LAZABEMIDE HYDROCHLORIDE]: the “IC50 of cell viability” value was above 46 µM. The value for `CN(C)[C@@H](Cc1ccccc1)c1ccccc1` [LEFETAMINE HYDROCHLORIDE] was above 46 µM.

Consider `COC(=O)\C1=C(/C)N\C(=C(/C1C2=C(Cl)C(=CC=C2)Cl)C(=O)OC(C)C)COC(N)=O` (stereo not given) [LEMILDIPINE], for which the “IC50 of cell viability” value is above 46 µM. Turning to `Nc1cccc2c1CN(C1CCC(=O)NC1=O)C2=O` (stereo not given) [LENALIDOMIDE], the “IC50 of cell viability” value is above 46 µM.

Regarding `COC(=O)C1=C(C)NC(C)=C(C(=O)OC(C)(C)CN(C)CCC(c2ccccc2)c2ccccc2)C1c1cccc([N+](=O)[O-])c1` (stereo not given) [LERCANIDIPINE HYDROCHLORIDE], the “IC50 of cell viability” value was above 46 µM. To `COC(=O)CC[C@H](N)C(=O)O` [LEUCIGLUMERUM] belongs above 46 µM; to `C=CCN1CC[C@]23CCCCC2[C@H]1Cc1ccc(O)cc13` (stereo not given in full) [LEVALLORPHAN], above 46 µM.

On to `Clc1cccc(C(c2ccc3nc[nH]c3c2)n2ccnc2)c1` (stereo not given) [LIAROZOLE], for which the “IC50 of cell viability” value is above 46 µM.

As to `CCN(CC)CC(=O)Nc1c(C)cccc1C` [LIDOCAINE], the “IC50 of cell viability” value is above 46 µM. Consider `CC1(C)OC2CC(=O)OC[C@@]23C1CC(=O)[C@]1(C)C3CC[C@@]2(C)C(c3ccoc3)OC(=O)C3O[C@@]321` (stereo not given in full) [LIMONIN], for which the “IC50 of cell viability” value is above 46 µM. Consider `ClC1C(Cl)C(Cl)C(Cl)C(Cl)C1Cl` (stereo not given) [LINDANE], for which the “IC50 of cell viability” value was above 46 µM.

Turning to `CC/C=C\C/C=C\C/C=C\CCCCCCCC(=O)O` [LINOLENIC ACID], the “IC50 of cell viability” value is above 46 µM. On to `O=C(O)COc1ccc(CCN[S+](=O)([O-])c2ccccc2)s1` [LINOTROBANUM], for which the “IC50 of cell viability” value is above 46 µM. The value for `O=C(O)Cn1c(C(=O)Nc2nc(-c3ccccc3Cl)cs2)cc2ccccc21` [LINTITRIPTUM] was above 46 µM.

These data come from the supplement of paper PMC3974653.
